Data taken from patent US11345694B2, “Antibacterial compounds” (DISCUVA LTD., priority 2017, dated 2022).
pIC50: −log10 of the molar value. ≈ marks a conversion by molar mass, not a printed value.

Key:
[1] = tested on: Klebsiella pneumoniae ATCC 10031 (KP2); experiment: MIC broth microdilution; assay type: cell-based; settings: ATCC10031
Method in brief: (§1)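 Two-fold dilution series, 0.39-200 μM final, max 2% DMSO; CA-MHB; 37° C, ambient air, 20-24 h; MIC = lowest conc. inhibiting visible growth. CLSI broth microdilution.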

[2] = tested on: Pseudomonas aeruginosa ATCC 33359 (PA); experiment: MIC broth microdilution; assay type: cell-based; settings: ATCC33359
Method in brief: (§2)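 Compounds are diluted two-fold across a final range of 0.39-200 μM, keeping DMSO no higher than 2% final. Bacteria in cation-adjusted Müller-Hinton broth are then incubated at 37° C under ambient atmosphere for 20-24 h. The lowest growth-inhibiting concentration gives the MIC.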

[3] = tested on: Acinetobacter baumannii ATCC 17978 (AB); experiment: MIC broth microdilution; assay type: cell-based; settings: ATCC17978
Method in brief: as §2

[4] = tested on: Staphylococcus aureus ATCC 35556 (SA); experiment: MIC broth microdilution; assay type: cell-based; settings: ATCC35556
Method in brief: as §2

[5] = tested on: Escherichia coli K12 (EC); experiment: MIC broth microdilution; assay type: cell-based
Method in brief: as §2

[6] = tested on: K. pneumoniae NCTC 13438 (KP1); experiment: MIC broth microdilution; assay type: cell-based, Klebsiella pneumoniae; settings: Klebsiella pneumoniae, NCTC13438
Method in brief: as §1

[7] = tested on: E. coli NCTC 13441 (UPEC); experiment: MIC broth microdilution; assay type: cell-based, Escherichia coli; settings: Escherichia coli, NCTC13441
Method in brief: as §2

[8] = tested on: human hepatocarcinoma cell line ATCC HB-8065 (HepG2); experiment: Human cell viability (CellTiter-Glo); assay type: cell-based; settings: Homo sapiens; HepG2 cells, 24 h incubation, CellTiter-Glo luminescence, 0.2-100 μM; read-out: IC50 values against the HepG2 cell line
Method in brief: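 HepG2 cells were seeded at 20,000 cells/well in MEM with 10% FBS and, after 24 h, exposed for 24 h at 37° C. to two-fold dilutions (final 0.2-100 μM) in MEM with 1% FBS and 1% DMSO. Viability was read by CellTiter-Glo luminescence, with IC50 from a 4-parameter logistic fit.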

MIC [1] [µM]	MIC [2] [µM]	MIC [3] [µM]	MIC [4] [µM]	MIC [5] [µM]	MIC [6] [µM]	MIC [7] [µM]	pIC50 [8]	SMILES
≤ 1	> 100	> 100	> 100	≤ 1	1 to 10 (≈ 0.324 to 3.24 µg/mL)	≤ 1	< 4.00	Cc1cc(-c2nc(N)[nH]c2-c2ccc(OC3CC3)c(F)c2)ccn1 [Example 14, 5-(4-Cyclopropoxy-3-fluorophenyl)-4-(2-methylpyridin-4-yl)-1H-imidazol-2-amine]
≤ 1	> 100	> 100	> 100	1 to 10 (≈ 0.305 to 3.05 µg/mL)	10 to 100 (≈ 3.05 to 30.5 µg/mL)	1 to 10 (≈ 0.305 to 3.05 µg/mL)	< 4.00	Cc1cc(-c2[nH]c(N)nc2-c2ccc(OCC#N)cc2)ccn1 [Example 35, 2-(4-(2-Amino-5-(2-methylpyridin-4-yl)-1H-imidazol-4-yl)phenoxy)acetonitrile]
≤ 1	> 100	> 100	> 100	1 to 10 (≈ 0.312 to 3.12 µg/mL)	10 to 100 (≈ 3.12 to 31.2 µg/mL)	1 to 10 (≈ 0.312 to 3.12 µg/mL)	< 4.00	CCOc1ccc(-c2[nH]c(N)nc2-c2ccnc(C)c2)cc1F [Example 17, 5-(4-Ethoxy-3-fluorophenyl)-4-(2-methylpyridin-4-yl)-1H-imidazol-2-amine]
≤ 1	> 100	> 100	> 100	1 to 10 (≈ 0.321 to 3.21 µg/mL)	1 to 10 (≈ 0.321 to 3.21 µg/mL)	1 to 10 (≈ 0.321 to 3.21 µg/mL)	< 4.00	Cc1cc(-c2[nH]c(N)nc2-c2ccc3c(c2)N(C)CCO3)ccn1 [Example 44, 4-(4-Methyl-3,4-dihydro-2H-benzo[b][1,4]oxazin-6-yl)-5-(2-methylpyridin-4-yl)-1H-imidazol-2-amine]

Further lines, the compound ahead of its results:

SMILES	MIC [1] [µM]	MIC [2] [µM]	MIC [3] [µM]	MIC [4] [µM]	MIC [5] [µM]	MIC [6] [µM]	MIC [7] [µM]	pIC50 [8]
CNc1nc(-c2ccc3c(c2)OCCO3)c(-c2ccnc(C)c2)[nH]1 [Example 74, 4-(2,3-dihydrobenzo[b][1,4]dioxin-6-yl)-N-methyl-5-(2-methylpyridin-4-yl)-1H-imidazol-2-amine]	≤ 1	> 100	> 100	> 100	1 to 10 (≈ 0.322 to 3.22 µg/mL)	10 to 100 (≈ 3.22 to 32.2 µg/mL)	1 to 10 (≈ 0.322 to 3.22 µg/mL)	< 4.00
Cc1cc(-c2[nH]c(Cl)nc2-c2ccc3c(c2)OCCO3)ccn1 [Example 83, 4-(2-Chloro-4-(2,3-dihydrobenzo[b][1,4]dioxin-6-yl)-1H-imidazol-5-yl)-2-methylpyridine]	≤ 1	> 100	> 100	> 100	1 to 10 (≈ 0.328 to 3.28 µg/mL)	> 100	1 to 10 (≈ 0.328 to 3.28 µg/mL)	< 4.00
Cc1cc(-c2[nH]c(N(C)C)nc2-c2ccc3c(c2)OCCO3)ccn1 [Example 75, 4-(2,3-Dihydrobenzo[b][1,4]dioxin-6-yl)-N,N-dimethyl-5-(2-methylpyridin-4-yl)-1H-imidazol-2-amine]	1 to 10 (≈ 0.336 to 3.36 µg/mL)	> 100	> 100	> 100	10 to 100 (≈ 3.36 to 33.6 µg/mL)	> 100	10 to 100 (≈ 3.36 to 33.6 µg/mL)	< 4.00
Cc1cc(-c2[nH]c(CN)nc2-c2ccc3c(c2)OCCO3)ccn1 [Example 87, (4-(2,3-Dihydrobenzo[b][1,4]dioxin-6-yl)-5-(2-methylpyridin-4-yl)-1H-imidazol-2-yl)methanamine]	≤ 1	> 100	> 100	> 100	1 to 10 (≈ 0.322 to 3.22 µg/mL)	10 to 100 (≈ 3.22 to 32.2 µg/mL)	1 to 10 (≈ 0.322 to 3.22 µg/mL)	< 4.00
Cc1cc(-c2[nH]c(N)nc2-c2ccc3c(c2F)OCCO3)ccn1 [Example 60, 4-(5-Fluoro-2,3-dihydrobenzo[b][1,4]dioxin-6-yl)-5-(2-methylpyridin-4-yl)-1H-imidazol-2-amine]	≤ 1	> 100	> 100	> 100	1 to 10 (≈ 0.326 to 3.26 µg/mL)	10 to 100 (≈ 3.26 to 32.6 µg/mL)	1 to 10 (≈ 0.326 to 3.26 µg/mL)	< 4.00
